In patent US8624040B2, “Substituted hydroxamic acids and uses thereof” (Millennium Pharmaceuticals, Inc., priority 2009, dated 2014):

target: T1, purified human HDAC6 (Homo sapiens, UniProt Q9UBN7); test: HDAC6 Enzyme Assay; format: biochemical; conditions: enzyme inhibition, substrate Ac-Arg-Gly-Lys(Ac)-AMC, 1 hour at 30° C.
T1 construct: purchased BPS Bioscience 5006
T1 sequence (Q9UBN7 1-1215): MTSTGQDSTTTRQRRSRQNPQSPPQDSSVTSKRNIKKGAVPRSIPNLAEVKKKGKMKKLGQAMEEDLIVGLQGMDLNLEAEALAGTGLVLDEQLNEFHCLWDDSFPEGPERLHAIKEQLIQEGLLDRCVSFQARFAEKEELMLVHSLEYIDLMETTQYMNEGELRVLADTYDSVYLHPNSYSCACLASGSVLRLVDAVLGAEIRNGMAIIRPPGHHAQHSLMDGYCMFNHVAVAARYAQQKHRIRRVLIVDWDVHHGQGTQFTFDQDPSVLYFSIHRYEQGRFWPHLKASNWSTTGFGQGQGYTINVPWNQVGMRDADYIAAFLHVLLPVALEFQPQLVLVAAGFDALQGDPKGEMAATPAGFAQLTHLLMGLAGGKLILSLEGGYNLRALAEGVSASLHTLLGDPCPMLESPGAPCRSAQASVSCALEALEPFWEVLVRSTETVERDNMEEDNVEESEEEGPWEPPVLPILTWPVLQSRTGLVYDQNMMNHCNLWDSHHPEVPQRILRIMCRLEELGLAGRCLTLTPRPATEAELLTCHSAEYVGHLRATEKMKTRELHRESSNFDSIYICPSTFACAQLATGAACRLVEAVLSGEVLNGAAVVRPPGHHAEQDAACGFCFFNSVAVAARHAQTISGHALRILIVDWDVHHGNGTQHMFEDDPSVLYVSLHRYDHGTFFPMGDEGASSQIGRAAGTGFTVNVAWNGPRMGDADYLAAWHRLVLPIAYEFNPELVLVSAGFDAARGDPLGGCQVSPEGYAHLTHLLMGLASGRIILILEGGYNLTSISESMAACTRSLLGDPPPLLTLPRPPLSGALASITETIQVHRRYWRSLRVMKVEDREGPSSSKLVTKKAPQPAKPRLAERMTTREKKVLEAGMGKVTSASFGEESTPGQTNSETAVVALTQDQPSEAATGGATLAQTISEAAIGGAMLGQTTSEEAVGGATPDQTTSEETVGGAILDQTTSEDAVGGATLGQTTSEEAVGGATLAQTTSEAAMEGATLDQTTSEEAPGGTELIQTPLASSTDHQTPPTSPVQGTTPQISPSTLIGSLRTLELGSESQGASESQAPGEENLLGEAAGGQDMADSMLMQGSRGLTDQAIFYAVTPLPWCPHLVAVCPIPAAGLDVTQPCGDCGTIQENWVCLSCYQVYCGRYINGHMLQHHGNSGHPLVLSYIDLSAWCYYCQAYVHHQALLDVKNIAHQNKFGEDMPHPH
Description: To measure the inhibition of HDAC6 activity, purified human HDAC6 (BPS Bioscience; Cat. No. 5006) is incubated with substrate Ac-Arg-Gly-Lys(Ac)-AMC peptide (Bachem Biosciences; Cat. No. I-1925) for 1 hour at 30° C. in the presence of test compounds or vehicle DMSO control. The reaction is stopped with the HDAC inhibitor trichostatin A (Sigma; Cat. No. T8552) and the amount of Arg-Gly-Lys-AMC generated is quantitated by digestion with trypsin (Sigma; Cat. No. T1426) and subsequent measurement of the amount of AMC released using a fluorescent plate reader (Pherastar; BMG Technologies) set at Ex 340 nm and Em 460 nm. Concentration response curves are generated by calculating the fluorescence increase in test compound-treated samples relative to DMSO-treated controls, and enzyme inhibition (IC50) values are determined from those curves.

IC50 [nM]	Compound
< 50	Cc1onc(-c2ccccc2)c1C(=O)N1CCc2cc(C(=O)NO)sc2C1 [Compound 107, N-hydroxy-6-[(5-methyl-3-phenylisoxazol-4-yl)carbonyl]-4,5,6,7-tetrahydrothieno[2,3-c]pyridine-2-carboxamide]
> 1000	COc1ccc(CN2CCc3cc(C(=O)NO)sc3C2)cc1 [Compound 111, N-hydroxy-6-(4-methoxybenzyl)-4,5,6,7-tetrahydrothieno[2,3-c]pyridine-2-carboxamide]
< 50	Cn1cccc1C(=O)N1CCc2cc(C(=O)NO)sc2C1 [Compound 116, N-hydroxy-6-[(1-methyl-1H-pyrrol-2-yl)carbonyl]-4,5,6,7-tetrahydrothieno[2,3-c]pyridine-2-carboxamide]
50 to 100	Cc1cc(C)n(CC(=O)N2CCc3cc(C(=O)NO)sc3C2)n1 [Compound 125, 6-(2-(3,5-dimethyl-1H-pyrazol-1-yl)acetyl)-N-hydroxy-4,5,6,7-tetrahydrothieno[2,3-c]pyridine-2-carboxamide]
< 50	O=C(NO)c1cc2c(s1)CN(C(=O)c1cnn(-c3ccccc3)c1)CC2 [Compound 127, N-hydroxy-6-[(1-phenyl-1H-pyrazol-4-yl)carbonyl]-4,5,6,7-tetrahydrothieno[2,3-c]pyridine-2-carboxamide]
< 50	CC(=O)Nc1cc(NC(C)=O)cc(C(=O)N2CCc3cc(C(=O)NO)sc3C2)c1 [Compound 131, 6-[3,5-bis(acetylamino)benzoyl]-N-hydroxy-4,5,6,7-tetrahydrothieno[2,3-c]pyridine-2-carboxamide]
< 50	Cc1onc(-c2ccccc2)c1NC(=O)N1CCc2cc(C(=O)NO)sc2C1 [Compound 132, N^2-hydroxy-N^6-(5-methyl-3-phenylisoxazol-4-yl)-4,7-dihydrothieno[2,3-c]pyridine-2,6(5H)-dicarboxamide]
< 50	O=C(NO)c1cc2c(s1)CN(C(=O)c1cccc(-n3cccn3)c1)CC2 [Compound 133, 6-(3-(1H-pyrazol-1-yl)benzoyl)-N-hydroxy-4,5,6,7-tetrahydrothieno[2,3-c]pyridine-2-carboxamide]
< 50	CC(C)c1ccc(NC(=O)N2CCc3cc(C(=O)NO)sc3C2)cc1 [Compound 139, N^2-hydroxy-N^6-(4-isopropylphenyl)-4,7-dihydrothieno[2,3-c]pyridine-2,6(5H)-dicarboxamide]
< 50	O=C(NO)c1cc2c(s1)CN(C(=O)c1cc(F)cc(F)c1)CC2 [Compound 140, 6-(3,5-difluorobenzoyl)-N-hydroxy-4,5,6,7-tetrahydrothieno[2,3-c]pyridine-2-carboxamide]
< 50	O=C(NO)c1cc2c(s1)CN(C(=O)c1cscn1)CC2 [Compound 146, N-hydroxy-6-(1,3-thiazol-4-ylcarbonyl)-4,5,6,7-tetrahydrothieno[2,3-c]pyridine-2-carboxamide]
50 to 100	CCn1nc(C)cc1C(=O)N1CCc2cc(C(=O)NO)sc2C1 [Compound 149, 6-[(1-ethyl-3-methyl-1H-pyrazol-5-yl)carbonyl]-N-hydroxy-4,5,6,7-tetrahydrothieno[2,3-c]pyridine-2-carboxamide]
< 50	Cc1nc(-c2ccccc2)ncc1C(=O)N1CCc2cc(C(=O)NO)sc2C1 [Compound 152, N-hydroxy-6-[(4-methyl-2-phenylpyrimidin-5-yl)carbonyl]-4,5,6,7-tetrahydrothieno[2,3-c]pyridine-2-carboxamide]
< 50	O=C(NO)c1cc2c(s1)CN(C(=O)c1c(F)c(F)cc(F)c1F)CC2 [Compound 156, N-hydroxy-6-(2,3,5,6-tetrafluorobenzoyl)-4,5,6,7-tetrahydrothieno[2,3-c]pyridine-2-carboxamide]
< 50	Nc1[nH]ncc1C(=O)N1CCc2cc(C(=O)NO)sc2C1 [Compound 159, 6-[(5-amino-1H-pyrazol-4-yl)carbonyl]-N-hydroxy-4,5,6,7-tetrahydrothieno[2,3-c]pyridine-2-carboxamide]
